Results on one compound are retold here after US20250152559A1, “METHODS FOR TREATING MYC-AMPLIFIED CANCER” (The Governing Council of the University of Toronto, priority 2023, published 2025).

The subject of one assay is HD-MB03 flank xenograft. In words: Subcutaneous flank xenograft, IVIS, H&E and Ki67 IHC. The assay is classed as in vivo, mice. On the procedure:
In parallel to these experiments, subcutaneous flank xenografts were engrafted into two cohorts of mice, which were treated with the vehicle or R2. […] To investigate the pharmacokinetics of BAY in vivo, its concentration in plasma and brain tissues of healthy mice was directly quantified using an LC-MS approach. BAY was detected in both brains and plasma of mice undergoing treatment, however the plasma concentrations exceeded those of the brain by approximately 10-fold (FIG. 5H-I). To determine whether treatment with BAY affects de novo pyrimidine biosynthesis in vivo, changes in pyrimidine metabolism were measured in the brain in comparison to tumor tissues from the flank (FIG. 5J-K). Although BAY treatment impacted de novo pyrimidine metabolism in vivo in both brain and tumor tissues, with a similar pattern observed in vitro (FIG. 4A), the effect size was stronger in peripheral tumor tissue in comparison to brain tissue. Such findings further reflect the limited capacity for BAY to accumulate within the brain.
To examine histological consequences of DHODH inhibition in vivo, the xenografts from the flanks of BAY- and vehicle-treated mice were surgically resected one day after administering the final dose.
FFPE tissues were sectioned onto slides and then deparaffinized prior to analysis. Samples were stained with H&E for histological examination. In parallel, sections were blocked in 5% BSA (anti-Ki67, anti-4E-BP1 Thr37/46, anti-DHODH) or 5% NGS (anti-EGR1) and stained with primary antibody at 4° C. overnight. […]
PDOX were generated by engrafting 25,000 tumor cells (both SU_MB002 and HD-MB03 cell lines), suspended in 5 μL PBS, directly into the mouse cerebrum. […] Tumor area was manually measured in H&E-stained sections of FFPE tissues using ImageJ.
For imaging via the in vivo imaging system (IVIS), mice were sedated with isoflurane gas and then administered luciferin substrate (150 mg/kg in PBS) via subcutaneous injection. After 10 minutes, bioluminescent signal (photons per second; p/s) was quantified using Living Image software.

For assay [1], the system named is O-GlcNAc-conjugated proteins and c-Myc in HD-MB03 and SU_MB002 tumor cells. The assay can be described thus: Western blotting of O-GlcNAc-linked proteins and c-Myc. The format is cell-based, human. The conditions noted are these: HD-MB03 and SU_MB002, BAY vs vehicle. The source says: Uridine metabolite depletion may impact not only the macromolecular demands of the rapidly cycling cellular phenotype identified through scRNA-seq analysis (inducing cell cycle arrest), but also the potentiation of oncogenic signaling programs. […] To determine whether reduced UDP-GlcNAc abundance influences O-GlcNAcylation of proteins and/or expression of c-Myc at the protein level, the abundance of β-O-glycosidic-linked proteins (Ser and Thr residues) and the expression of c-Myc protein in HD-MB03 and SU_MB002 tumor cells treated with BAY or its vehicle, were measured using Western blotting.
Protein lysates were isolated from approximately 500,000-1,000,000 cells. Pellets were rinsed with PBS and then lysed in RIPA buffer containing HALT™ protease inhibitor cocktail (ThermoFisher). Protein concentrations were quantified using the Bradford Assay (BioRad). Protein size was resolved via SDS-PAGE and then transferred to PVDF for immunoblotting. […] Quantification was performed by analyzing mean pixel density of each band and then normalizing to GAPDH loading control. […]
On the technique in general: A western blot detects proteins with antibodies after separation by electrophoresis.

Assay [2] concerns p-4EBP1 and EGR1 expression in PDOX. The assay can be described thus: IHC of time-matched PDOX from brains of treated mice. The following applies: PDOX after final dose, vs vehicle-treated PDOX. The format is in vivo. On the procedure: To determine whether mechanisms identified in vitro extend to the in vivo orthotopic model, time-matched PDOX were isolated from the brains of BAY-treated mice after the final dose of BAY was administered. […] An infrequent EGR1^+ subpopulation of tumor cells was also detected, which varied in the levels of nuclear EGR1 expression (FIG. 10H).
FFPE tissues were sectioned onto slides and then deparaffinized prior to analysis. Samples were stained with H&E for histological examination. In parallel, sections were blocked in 5% BSA (anti-Ki67, anti-4E-BP1 Thr37/46, anti-DHODH) or 5% NGS (anti-EGR1) and stained with primary antibody at 4° C. overnight. Rabbit anti-Ki67 (Thermo Fisher Scientific; Catalogue #RM-9106-S0) was diluted 1:100, rabbit anti-EGR1 (Cell Signaling Technologies; catalogue #4145) was diluted 1:200, rabbit anti-4E-BP1 Thr37/46 (Cell Signaling Technologies; catalogue #2855) was diluted 1:1000, and rabbit anti-DHODH (Proteintech 14877-1-AP) was diluted 1:200. Anti-rabbit HRP-conjugated secondary antibodies (Abcam; Catalogue #ab214880) were used with DAB for development (Vector Laboratories; Catalogue #SK-4100). All slides were scanned using Image Scope (Aperio).

With `CCn1c(CO)nn(-c2cc(O[C@@H](C)C(F)(F)F)c(C(=O)Nc3c(F)cccc3Cl)cc2F)c1=O` [BAY2402234], the “antitumoral response of flank tumors compared to orthotopic xenografts” value with HD-MB03 flank xenograft (HD-MB03 flank, R2) is reported as “much stronger antitumoral response”. Besides, in the assay on HD-MB03 flank xenograft (flank xenografts resected one day after final dose, vs vehicle), the “tumor cell density (H&E)” value was “remarkably reduced”. Moreover, the “Ki67 expression (IHC) in surviving tumor cells” value in the assay on HD-MB03 flank xenograft (residual flank xenograft tissues) is recorded as “reduction in Ki67 expression”. Further, in assay [1], the “abundance of O-GlcNAc-conjugated proteins” value is listed as “global reduction” and the c-Myc protein expression entry was “significant reduction”. Also, in assay [2], the “EGR1 expression (IHC)” value is listed as “induced EGR1 expression” and the “p-4EBP1 expression (IHC)” value is “decreased p-4EBP1 expression”.
